Measurements as given in ChEMBL document CHEMBL1136851, “Identification of 4-hydroxyquinolines inhibitors of p300/CBP histone acetyltransferases” (Bioorg Med Chem Lett, 2009).
Calls of active or inactive are those of the source. No cut-off for these calls is given here.

What was measured:
U-937 [1] = assay: Inhibition of human histone acetyltransferase in U937 cell nuclear extracts at 50 uM; type: cell-free
[2] = target: CREB-binding protein (Homo sapiens) (UniProt Q92793); assay: Inhibition of human GST-fused histone acetyltransferase CBP in U937 cell nuclear extracts assessed as remaining enzyme activity at 50 uM; type: cell-free; conditions: U-937
Chain of CREB-binding protein (Homo sapiens) (Q92793 2-2442 limits assumed): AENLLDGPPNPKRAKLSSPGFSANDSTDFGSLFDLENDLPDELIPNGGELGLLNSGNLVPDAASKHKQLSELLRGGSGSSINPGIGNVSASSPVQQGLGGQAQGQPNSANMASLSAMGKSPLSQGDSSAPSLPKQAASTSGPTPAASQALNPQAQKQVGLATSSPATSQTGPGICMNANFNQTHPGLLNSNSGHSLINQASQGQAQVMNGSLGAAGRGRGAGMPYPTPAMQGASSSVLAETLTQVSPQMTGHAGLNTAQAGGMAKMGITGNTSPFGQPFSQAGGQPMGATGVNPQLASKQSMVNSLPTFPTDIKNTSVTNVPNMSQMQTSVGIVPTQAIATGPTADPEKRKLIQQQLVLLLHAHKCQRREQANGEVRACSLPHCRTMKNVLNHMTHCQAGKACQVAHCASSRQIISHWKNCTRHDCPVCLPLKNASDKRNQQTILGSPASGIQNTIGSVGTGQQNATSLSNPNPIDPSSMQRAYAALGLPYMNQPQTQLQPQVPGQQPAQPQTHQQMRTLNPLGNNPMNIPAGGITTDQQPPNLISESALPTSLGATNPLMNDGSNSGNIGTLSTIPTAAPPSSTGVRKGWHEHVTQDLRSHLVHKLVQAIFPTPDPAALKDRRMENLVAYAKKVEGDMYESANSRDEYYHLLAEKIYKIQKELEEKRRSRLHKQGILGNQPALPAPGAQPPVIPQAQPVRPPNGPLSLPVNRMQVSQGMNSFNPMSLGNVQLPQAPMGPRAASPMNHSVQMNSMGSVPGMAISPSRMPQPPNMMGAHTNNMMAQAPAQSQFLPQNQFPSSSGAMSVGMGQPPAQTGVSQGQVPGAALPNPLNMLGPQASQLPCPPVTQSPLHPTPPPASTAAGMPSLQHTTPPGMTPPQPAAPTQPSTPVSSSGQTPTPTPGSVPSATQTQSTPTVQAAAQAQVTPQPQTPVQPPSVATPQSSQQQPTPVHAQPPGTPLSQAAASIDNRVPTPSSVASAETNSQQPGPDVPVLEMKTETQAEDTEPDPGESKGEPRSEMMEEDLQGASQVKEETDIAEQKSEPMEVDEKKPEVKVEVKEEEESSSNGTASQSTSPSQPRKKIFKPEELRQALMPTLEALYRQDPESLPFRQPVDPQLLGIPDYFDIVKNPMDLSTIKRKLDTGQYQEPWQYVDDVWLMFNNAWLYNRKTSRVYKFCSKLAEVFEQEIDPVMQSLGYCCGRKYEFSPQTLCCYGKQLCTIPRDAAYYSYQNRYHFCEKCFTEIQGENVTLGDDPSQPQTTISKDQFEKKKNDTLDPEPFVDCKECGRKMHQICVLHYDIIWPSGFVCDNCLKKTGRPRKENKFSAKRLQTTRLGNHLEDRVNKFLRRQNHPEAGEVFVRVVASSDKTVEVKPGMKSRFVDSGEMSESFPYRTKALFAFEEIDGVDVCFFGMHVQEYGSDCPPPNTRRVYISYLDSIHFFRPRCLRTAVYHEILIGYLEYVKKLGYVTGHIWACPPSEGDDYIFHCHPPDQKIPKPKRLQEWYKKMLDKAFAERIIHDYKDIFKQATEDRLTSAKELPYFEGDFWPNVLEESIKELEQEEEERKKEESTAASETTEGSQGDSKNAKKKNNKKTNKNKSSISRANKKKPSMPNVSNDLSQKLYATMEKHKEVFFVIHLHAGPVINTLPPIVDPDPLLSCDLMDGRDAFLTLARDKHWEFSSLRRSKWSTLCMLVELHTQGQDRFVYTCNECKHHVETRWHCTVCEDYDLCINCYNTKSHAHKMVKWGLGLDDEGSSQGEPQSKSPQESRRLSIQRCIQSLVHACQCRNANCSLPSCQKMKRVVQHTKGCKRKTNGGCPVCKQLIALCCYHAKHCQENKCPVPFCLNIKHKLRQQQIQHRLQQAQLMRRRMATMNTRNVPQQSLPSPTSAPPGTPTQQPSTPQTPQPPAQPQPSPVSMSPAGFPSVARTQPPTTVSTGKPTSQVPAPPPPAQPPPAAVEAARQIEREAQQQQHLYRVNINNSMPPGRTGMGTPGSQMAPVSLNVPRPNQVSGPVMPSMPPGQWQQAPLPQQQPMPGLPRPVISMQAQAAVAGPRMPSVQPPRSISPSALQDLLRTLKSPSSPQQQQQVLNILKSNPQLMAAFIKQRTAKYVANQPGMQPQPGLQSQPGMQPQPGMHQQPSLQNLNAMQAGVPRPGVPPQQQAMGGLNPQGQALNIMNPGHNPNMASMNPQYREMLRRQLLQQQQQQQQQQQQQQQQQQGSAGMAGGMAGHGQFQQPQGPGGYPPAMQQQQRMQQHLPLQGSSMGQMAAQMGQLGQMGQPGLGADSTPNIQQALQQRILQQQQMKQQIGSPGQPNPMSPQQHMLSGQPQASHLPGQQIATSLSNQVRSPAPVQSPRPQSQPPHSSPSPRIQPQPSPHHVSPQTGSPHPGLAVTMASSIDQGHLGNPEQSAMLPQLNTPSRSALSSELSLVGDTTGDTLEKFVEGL

[3] = target: Histone acetyltransferase KAT2A (Homo sapiens) (UniProt Q92830); assay: Inhibition of human histone acetyltransferase GCN5 in U937 cell nuclear extracts assessed as remaining enzyme activity at 50 uM; type: cell-free; conditions: U-937
Chain of Histone acetyltransferase KAT2A (Homo sapiens) (Q92830 2-837 limits assumed): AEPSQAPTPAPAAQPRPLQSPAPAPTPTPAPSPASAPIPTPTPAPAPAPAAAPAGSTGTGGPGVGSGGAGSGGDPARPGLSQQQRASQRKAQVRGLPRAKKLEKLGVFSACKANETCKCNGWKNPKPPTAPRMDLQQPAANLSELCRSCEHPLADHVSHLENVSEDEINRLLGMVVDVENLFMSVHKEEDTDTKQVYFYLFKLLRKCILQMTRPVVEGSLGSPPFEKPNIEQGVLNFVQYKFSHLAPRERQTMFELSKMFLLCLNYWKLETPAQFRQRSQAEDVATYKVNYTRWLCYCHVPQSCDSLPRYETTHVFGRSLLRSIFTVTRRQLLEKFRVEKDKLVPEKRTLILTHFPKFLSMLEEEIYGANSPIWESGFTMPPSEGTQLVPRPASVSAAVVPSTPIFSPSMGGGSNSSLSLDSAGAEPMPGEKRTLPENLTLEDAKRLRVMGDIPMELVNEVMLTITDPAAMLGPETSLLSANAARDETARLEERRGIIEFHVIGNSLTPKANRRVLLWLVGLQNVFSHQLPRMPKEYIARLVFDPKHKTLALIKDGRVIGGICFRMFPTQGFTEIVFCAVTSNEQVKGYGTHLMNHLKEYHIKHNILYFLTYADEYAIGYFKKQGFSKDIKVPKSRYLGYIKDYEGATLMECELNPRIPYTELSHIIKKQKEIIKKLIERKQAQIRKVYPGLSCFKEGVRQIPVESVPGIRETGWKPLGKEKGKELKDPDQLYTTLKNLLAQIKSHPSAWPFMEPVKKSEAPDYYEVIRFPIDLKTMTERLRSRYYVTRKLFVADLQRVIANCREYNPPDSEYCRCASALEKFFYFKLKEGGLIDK

[4] = target: Histone acetyltransferase KAT2B (Homo sapiens) (UniProt Q92831); assay: Inhibition of human GST-fused histone acetyltransferase PCAF in U937 cell nuclear extracts assessed as remaining enzyme activity at 50 uM; type: cell-free; conditions: U-937
Chain of Histone acetyltransferase KAT2B (Homo sapiens) (Q92831 whole entry, looked up, the tested form may be a part): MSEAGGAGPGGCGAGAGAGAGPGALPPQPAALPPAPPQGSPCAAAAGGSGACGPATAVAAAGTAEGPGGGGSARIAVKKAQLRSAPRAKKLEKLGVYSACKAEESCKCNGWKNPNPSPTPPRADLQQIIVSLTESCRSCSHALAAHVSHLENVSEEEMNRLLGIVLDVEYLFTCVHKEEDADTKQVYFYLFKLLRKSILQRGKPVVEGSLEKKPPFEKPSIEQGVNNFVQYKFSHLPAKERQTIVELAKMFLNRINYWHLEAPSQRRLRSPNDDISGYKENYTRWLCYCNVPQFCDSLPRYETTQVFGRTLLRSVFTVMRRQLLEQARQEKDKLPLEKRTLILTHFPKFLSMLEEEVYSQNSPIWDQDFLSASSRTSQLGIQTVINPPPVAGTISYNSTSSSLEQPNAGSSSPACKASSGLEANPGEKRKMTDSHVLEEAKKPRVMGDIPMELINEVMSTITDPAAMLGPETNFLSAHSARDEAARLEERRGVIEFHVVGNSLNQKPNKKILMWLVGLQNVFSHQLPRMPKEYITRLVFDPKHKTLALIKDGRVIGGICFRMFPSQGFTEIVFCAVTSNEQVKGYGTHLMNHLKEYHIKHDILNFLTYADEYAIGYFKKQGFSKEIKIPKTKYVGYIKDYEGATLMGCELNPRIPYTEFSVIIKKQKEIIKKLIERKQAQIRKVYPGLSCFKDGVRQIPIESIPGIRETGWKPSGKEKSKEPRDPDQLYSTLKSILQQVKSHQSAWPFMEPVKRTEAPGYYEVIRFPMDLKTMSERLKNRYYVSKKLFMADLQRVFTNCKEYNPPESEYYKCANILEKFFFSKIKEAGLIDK

[5] = target: Histone acetyltransferase p300 (Homo sapiens) (UniProt Q09472); assay: Inhibition of human immunoprecipitated histone acetyltransferase p300 in U937 cell nuclear extracts assessed as remaining enzyme activity at 50 uM; type: cell-free; conditions: U-937
U-937 [6] = assay: Inhibition of SAHA-induced histone H3 acetylation in human U937 cells at 100 uM after 4 hrs by Western blot analysis; type: functional, cell-based
U-937 [7] = assay: Inhibition of SAHA-induced alpha tubulin acetylation in human U937 cells at 100 uM after 4 hrs by Western blot analysis; type: functional, cell-based
U-937 [8] = assay: Cell cycle arrest in human U937 cells assessed as accumulation at G1/S phase at 20 nM after 24 hrs; type: functional, cell-based
U-937 [9] = assay: Cell cycle arrest in human U937 cells assessed as loss of accumulation at G2 phase at 20 nM after 24 hrs; type: functional, cell-based
U-937 [10] = assay: Induction of apoptosis in human U937 cells at 20 uM by annexin V/propidium iodide double staining; type: functional, cell-based
U-937 [11] = assay: Induction of apoptosis in human U937 cells at 100 uM by annexin V/propidium iodide double staining; type: functional, cell-based
U-937 [12] = assay: Induction of cell differentiation in human U937 cells assessed as cytodifferentiation at 20 uM after 24 hrs by CD11c/PI method; type: functional, cell-based

Row | Activity [2] | Activity [3] | Activity [4] | Activity [5] | SMILES | inhibition (U-937 [1]) | Activity (U-937 [6]) | Activity (U-937 [7]) | Activity (U-937 [8]) | Activity (U-937 [9]) | Activity (U-937 [10]) | Activity (U-937 [11]) | Activity (U-937 [12])
1 | 116% | 96.8% | 82.4% | 39.8% | CCCCCCCCCCCCCCCc1nc2ccccc2c(O)c1C(=O)OCC |  | Active | Active | Active | Active | Active | Active | Active
2 | 91.2% | 102% | 100% | 47.7% | CCCCCc1nc2ccccc2c(O)c1C(=O)OCC |  | Active | Active | inactive | inactive |  |  | Active
3 | 93.4% | 93.4% | 90.1% | 39.1% | CCCCCCCCCCc1nc2ccccc2c(O)c1C(=O)OCC |  | Active | inactive | Active | Active | Active | Active | Active

Further lines, the compound ahead of its results:

Row | SMILES | Activity [2] | Activity [3] | Activity [4] | Activity [5] | inhibition (U-937 [1]) | Activity (U-937 [6]) | Activity (U-937 [7]) | Activity (U-937 [8]) | Activity (U-937 [9]) | Activity (U-937 [10]) | Activity (U-937 [11]) | Activity (U-937 [12])
4 | C=CC/C=C\C/C=C\CCCCCCCc1cccc(O)c1C(=O)O | 44% | 113% | 52.1% | 53.1% | 15% |  |  |  |  |  |  | 
5 | Cc1nc2ccccc2c(O)c1C(=O)O | 20.5% | 97.4% | 104% | 11.4% |  | Active | Active | inactive | inactive |  |  | Active
6 | C=C1C(=O)O[C@H](CCC)[C@H]1C(=O)O | 45.9% | 54.5% | 76.8% | 58.6% | 44% |  |  |  |  |  |  | 
7 | CCOC(=O)c1c(C)nc2ccccc2c1O | 13.4% | 97.4% | 81.7% | 16.4% |  | Active | inactive | inactive | inactive |  |  | Active
8 | CCCCCCCCCCCCCCCc1nc2ccccc2c(O)c1C(=O)O | 14.4% | 103% | 62.7% | 46.9% |  | Active | Active | inactive | inactive |  |  | Active
9 | CCCCCc1nc2ccccc2c(O)c1C(=O)O | 19% | 98% | 103% | 82% | 30% | Active | Active | inactive | inactive |  |  | Active
10 | CCCCCCCCCCc1nc2ccccc2c(O)c1C(=O)O | 13.2% | 95.4% | 91.5% | 53.9% |  | Active | Active | inactive | inactive |  |  | Active
